Columns and labels:
[1] = test system: DOHH2 cells; experiment: Cell proliferation assay (MTS), DOHH2 cells, 120 h; assay type: cell-based; settings: Homo sapiens, DOHH-2, 120 h
Procedure, shortened: (§1)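 RS4;11 and DOHH2 cells at 5000 cells/well in RPMI-1640 with 10% FBS were treated with compound at 1.5–10000 nM final, nine points, at 37 °C, 5% CO2. Exposure was 72 h for RS4;11 and 120 h for DOHH2. MTS was added for 2 h, absorbance read at 490/650 nm, and IC50 calculated.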

[2] = test system: RS4;11 cells; experiment: Cell proliferation assay (MTS), RS4;11 cells, 72 h; assay type: cell-based; settings: Homo sapiens, RS4-11, 72 h
Procedure, shortened: as §1

| IC50 [2] | Compound | IC50 [1] |
| --- | --- | --- |
| 10 nM | CC1(C)CCC(CN2CCN(c3ccc(C(=O)NS(=O)(=O)c4cc5c(c([N+](=O)[O-])c4)N[C@@H](CO)CS5)c(Oc4cnc5[nH]ccc5c4)c3)CC2)=C(c2ccc(Cl)cc2)C1 [Example 3-7, (S)-2-((1H-pyrrolo[2,3-b]pyridin-5-yl)oxy)-4-(4-((4′-chloro-5,5-dimethyl-3,4,5,6-tetra-hydro-[1,1′-biphenyl]-2-yl)methyl)piperazin-1-yl)-N-((3-(hydroxymethyl)-5-nitro-3,4-dihydro-2H-benzo[b][1,4]thiazin-7-yl)sulfonyl) benzamide] | 31 nM |
| 17 nM | CN(C)C[C@H]1CSc2cc(S(=O)(=O)NC(=O)c3ccc(N4CCN(CC5=C(c6ccc(Cl)cc6)CC(C)(C)CC5)CC4)cc3Oc3cnc4[nH]ccc4c3)cc([N+](=O)[O-])c2N1 [Example 3-8, (S)-2-((1H-pyrrolo[2,3-b]pyridin-5-yl)oxy)-4-(4-((4′-chloro-5,5-dimethyl-3,4,5,6-tetra-hydro-[1,1′-biphenyl]-2-yl)methyl)piperazin-1-yl)-N-((3-((dimethylamino)methyl)-5-nitro-3,4-dihydro-2H-benzo[b][1,4]thiazin-7-yl)sulfonyl)benzamide] | 67 nM |
| 13 nM | CN1CCN(C[C@H]2CSc3cc(S(=O)(=O)NC(=O)c4ccc(N5CCN(CC6=C(c7ccc(Cl)cc7)CC(C)(C)CC6)CC5)cc4Oc4cnc5[nH]ccc5c4)cc([N+](=O)[O-])c3N2)CC1 [Example 3-9, (S)-2-((1H-pyrrolo[2,3-b]pyridin-5-yl)oxy)-4-(4-((4′-chloro-5,5-dimethyl-3,4,5,6-tetra-hydro-[1,1′-biphenyl]-2-yl)methyl)piperazin-1-yl)-N-((3-((4-methylpiperazin-1-yl)methyl)-5-nitro-3,4-dihydro-2H-benzo[b][1,4]thiazin-7-yl)sulfonyl)benzamide] | 24 nM |
| 11 nM | CC1(C)CCC(CN2CCN(c3ccc(C(=O)NS(=O)(=O)c4cc5c(c([N+](=O)[O-])c4)N[C@@H](CN4CCOCC4)CS5)c(Oc4cnc5[nH]ccc5c4)c3)CC2)=C(c2ccc(Cl)cc2)C1 [Example 3-10, (S)-2-((1H-pyrrolo[2,3-b]pyridin-5-yl)oxy)-4-(4-((4′-chloro-5,5-dimethyl-3,4,5,6-tetra-hydro-[1,1′-biphenyl]-2-yl)methyl)piperazin-1-yl)-N-((3-(morpholinomethyl)-5-nitro-3,4-dihydro-2H-benzo[b][1,4]thiazin-7-yl)sulfonyl)benzamide] | 32 nM |
| 11 nM | CC1(C)CCC(CN2CCN(c3ccc(C(=O)NS(=O)(=O)c4cc5c(c([N+](=O)[O-])c4)N[C@H](CCO)CS5)c(Oc4cnc5[nH]ccc5c4)c3)CC2)=C(c2ccc(Cl)cc2)C1 [Example 3-11, (R)-2-((1H-pyrrolo[2,3-b]pyridin-5-yl)oxy)-4-(4-((4′-chloro-5,5-dimethyl-3,4,5,6-tetra-hydro-[1,1′-biphenyl]-2-yl)methyl)piperazin-1-yl)-N-((3-(2-hydroxyethyl)-5-nitro-3,4-dihydro-2H-benzo[b][1,4]thiazin-7-yl)sulfonyl) benzamide] | 16 nM |
| 84 nM | COCC[C@@H]1CSc2cc(S(=O)(=O)NC(=O)c3ccc(N4CCN(CC5=C(c6ccc(Cl)cc6)CC(C)(C)CC5)CC4)cc3Oc3cnc4[nH]ccc4c3)cc([N+](=O)[O-])c2N1 [Example 3-12, (R)-2-((1H-pyrrolo[2,3-b]pyridin-5-yl)oxy)-4-(4-((4′-chloro-5,5-dimethyl-3,4,5,6-tetra-hydro-[1,1′-biphenyl]-2-yl)methyl)piperazin-1-yl)-N-((3-(2-methoxyethyl)-5-nitro-3,4-dihydro-2H-benzo[b][1,4]thiazin-7-yl)sulfonyl)benzamide] | 120 nM |
| 2 nM | CN(C)CC[C@@H]1CSc2cc(S(=O)(=O)NC(=O)c3ccc(N4CCN(CC5=C(c6ccc(Cl)cc6)CC(C)(C)CC5)CC4)cc3Oc3cnc4[nH]ccc4c3)cc([N+](=O)[O-])c2N1 [Example 3-13, (R)-2-((1H-pyrrolo[2,3-b]pyridin-5-yl)oxy)-4-(4-((4′-chloro-5,5-dimethyl-3,4,5,6-tetra-hydro-[1,1′-biphenyl]-2-yl)methyl)piperazin-1-yl)-N-((3-(2-(dimethylamino)ethyl)-5-nitro-3,4-dihydro-2H-benzo[b][1,4]thiazin-7-yl)sulfonyl)benzamide] | 2 nM |
| 4 nM | CN1CCN(CC[C@@H]2CSc3cc(S(=O)(=O)NC(=O)c4ccc(N5CCN(CC6=C(c7ccc(Cl)cc7)CC(C)(C)CC6)CC5)cc4Oc4cnc5[nH]ccc5c4)cc([N+](=O)[O-])c3N2)CC1 [Example 3-14, (R)-2-((1H-pyrrolo[2,3-b]pyridin-5-yl)oxy)-4-(4-((4′-chloro-5,5-dimethyl-3,4,5,6-tetra-hydro-[1,1′-biphenyl]-2-yl)methyl)piperazin-1-yl)-N-((3-(2-(4-methylpiperazin-1-yl)ethyl)-5-nitro-3,4-dihydro-2H-benzo[b][1,4]thiazin-7-yl)sulfonyl)benzamide] | 9 nM |
| 13 nM | CC1(C)CCC(CN2CCN(c3ccc(C(=O)NS(=O)(=O)c4cc5c(c([N+](=O)[O-])c4)N[C@@H](CCO)CS5)c(Oc4cnc5[nH]ccc5c4)c3)CC2)=C(c2ccc(Cl)cc2)C1 [Example 3-15, (S)-2-((1H-pyrrolo[2,3-b]pyridin-5-yl)oxy)-4-(4-((4′-chloro-5,5-dimethyl-3,4,5,6-tetra-hydro-[1,1′-biphenyl]-2-yl)methyl)piperazin-1-yl)-N-((3-(2-hydroxyethyl)-5-nitro-3,4-dihydro-2H-benzo[b][1,4]thiazin-7-yl)sulfonyl) benzamide] | 48 nM |
| 33 nM | COCC[C@H]1CSc2cc(S(=O)(=O)NC(=O)c3ccc(N4CCN(CC5=C(c6ccc(Cl)cc6)CC(C)(C)CC5)CC4)cc3Oc3cnc4[nH]ccc4c3)cc([N+](=O)[O-])c2N1 [Example 3-16, (S)-2-((1H-pyrrolo[2,3-b]pyridin-5-yl)oxy)-4-(4-((4′-chloro-5,5-dimethyl-3,4,5,6-tetra-hydro-[1,1′-biphenyl]-2-yl)methyl)piperazin-1-yl)-N-((3-(2-methoxyethyl)-5-nitro-3,4-dihydro-2H-benzo[b][1,4]thiazin-7-yl)sulfonyl)benzamide] | 132 nM |
| 19 nM | CS(=O)OCC[C@H]1CSc2cc(S(=O)(=O)NC(=O)c3ccc(N4CCN(CC5=C(c6ccc(Cl)cc6)CC(C)(C)CC5)CC4)cc3Oc3cnc4[nH]ccc4c3)cc([N+](=O)[O-])c2N1 (stereo partly drawn) [Example 3-17, 2-((S)-7-(N-(2-((1H-pyrrolo[2,3-b]pyridin-5-yl)oxy)-4-(4-((4′-chloro-5,5-dimethyl-3,4,5,6-tetrahydro-[1,1′-biphenyl]-2-yl)methyl)piperazin-1-yl)benzoyl)sulfamoyl)-5-nitro-3,4-dihydro-2H-benzo[b][1,4]thiazin-3-yl) ethyl methanesulfinate] | 49 nM |
| 20 nM | CC1(C)CCC(CN2CCN(c3ccc(C(=O)NS(=O)(=O)c4cc5c(c([N+](=O)[O-])c4)N[C@@H](CCS(C)(=O)=O)CS5)c(Oc4cnc5[nH]ccc5c4)c3)CC2)=C(c2ccc(Cl)cc2)C1 [Example 3-18, (S)-2-((1H-pyrrolo[2,3-b]pyridin-5-yl)oxy)-4-(4-((4′-chloro-5,5-dimethyl-3,4,5,6-tetra-hydro-[1,1′-biphenyl]-2-yl)methyl)piperazin-1-yl)-N-((3-(2-(methylsulfonyl)ethyl)-5-nitro-3,4-dihydro-2H-benzo[b][1,4]thiazin-7-yl)sulfonyl)benzamide] | 54 nM |
| 1 nM | CN1CCN(CC[C@H]2CSc3cc(S(=O)(=O)NC(=O)c4ccc(N5CCN(CC6=C(c7ccc(Cl)cc7)CC(C)(C)CC6)CC5)cc4Oc4cnc5[nH]ccc5c4)cc([N+](=O)[O-])c3N2)CC1 [Example 3-19, (S)-2-((1H-pyrrolo[2,3-b]pyridin-5-yl)oxy)-4-(4-((4′-chloro-5,5-dimethyl-3,4,5,6-tetra-hydro-[1,1′-biphenyl]-2-yl)methyl)piperazin-1-yl)-N-((3-(2-(4-methylpiperazin-1-yl)ethyl)-5-nitro-3,4-dihydro-2H-benzo[b][1,4]thiazin-7-yl)sulfonyl)benzamide] | 6 nM |
| 2 nM | CC1(C)CCC(CN2CCN(c3ccc(C(=O)NS(=O)(=O)c4cc5c(c([N+](=O)[O-])c4)N[C@@H](CCN4CCOCC4)CS5)c(Oc4cnc5[nH]ccc5c4)c3)CC2)=C(c2ccc(Cl)cc2)C1 [Example 3-20, (S)-2-((1H-pyrrolo[2,3-b]pyridin-5-yl)oxy)-4-(4-((4′-chloro-5,5-dimethyl-3,4,5,6-tetra-hydro-[1,1′-biphenyl]-2-yl)methyl)piperazin-1-yl)-N-((3-(2-morpholinoethyl)-5-nitro-3,4-dihydro-2H-benzo[b][1,4]thiazin-7-yl)sulfonyl)benzamide] | 9 nM |
| 1 nM | CN1CCN(C[C@@H]2CNc3cc(S(=O)(=O)NC(=O)c4ccc(N5CCN(CC6=C(c7ccc(Cl)cc7)CC(C)(C)CC6)CC5)cc4Oc4cnc5[nH]ccc5c4)cc([N+](=O)[O-])c3N2)CC1 [Example 4-1, (S)-2-((1H-pyrrolo[2,3-b]pyridin-5-yl)oxy)-4-(4-((4′-chloro-5,5-dimethyl-3,4,5,6-tetrahydro-[1,1′-biphenyl]-2-yl)methyl)piperazin-1-yl)-N-((2-((4-methylpiperazin-1-yl)methyl)-8-nitro-1,2,3,4-tetrahydroquinoxalin-6-yl)sulfonyl)benzamide] | 13 nM |
| 9 nM | CC1(C)CCC(CN2CCN(c3ccc(C(=O)NS(=O)(=O)c4cc5c(c([N+](=O)[O-])c4)N[C@H](CN4CCOCC4)CN5)c(Oc4cnc5[nH]ccc5c4)c3)CC2)=C(c2ccc(Cl)cc2)C1 [Example 4-2, (S)-2-((1H-pyrrolo[2,3-b]pyridin-5-yl)oxy)-4-(4-((4′-chloro-5,5-dimethyl-3,4,5,6-tetra-hydro-[1,1′-biphenyl]-2-yl)methyl)piperazin-1-yl)-N-((2-(morpholinomethyl)-8-nitro-1,2,3,4-tetrahydroquinoxalin-6-yl)sulfonyl) benzamide] | 29 nM |
